# According to patent US9988680B2, “Non-natural nucleosides as theranostic agents” (Case Western Reserve University, priority 2011, dated 2018):
# What was measured:
# MOLT4 cells [1] = experiment: Cell proliferation assay (trypan blue, viable vs non-viable cells), MOLT4; type: cell-based; settings: for IC50 / LD50: MOLT4, up to 72 h
# Protocol: (§1) Cells were seeded at a population density of ˜200,000 cells mL-1 and treated with variable concentrations of non-natural nucleoside (0.1-100 μg mL-1) for up to 72 h. The final DMSO concentration in all experiments was 0.1%. Cell viability was assessed via trypan blue staining and counting the number of viable (clear) versus non-viable (blue) cells under a microscopy using a hemocytometer. The IC50 values for both nonnatural nucleosides were obtained using a nonlinear regression curve fit of the data to eq 3. LD50 values for the non-natural nucleosides were calculated using identical approaches.
# This hypothesis was tested by measuring the cytostatic and/or cytotoxic effects of the corresponding nucleoside, 3-Eth-5-NIdR, and 5-nitroindolyl-2′-deoxynucleoside (5-NIdR) against various ALL cell lines including MOLT4, CEM-C7, Jurkat, RS4(11), JS45.01, and Loucy. Western blot analyses was first performed to determine TdT levels in each ALL cell line. […] We next tested the efficacy of 5-NIdR and 3-Eth-5-NIdR by treating exponentially growing cells with variable concentrations (0.1-100 μg mL^−1) of each non-natural nucleoside for time periods of up to 3 days.
# Loucy cells [2] = experiment: Cell proliferation assay (trypan blue), Loucy; type: cell-based; settings: for IC50 / LD50: Loucy (TdT-negative), up to 72 h
# Protocol: as §1
# CEM-C7 cells = experiment: Cell proliferation assay (trypan blue), CEM-C7; type: cell-based; settings: CEM-C7, up to 72 h
# Protocol: as §1
# (§2) Identical cell-based experiments were performed with the other ALL cell lines, and the corresponding IC50 and LD50 values for 5-NIdR and 3-Eth-5-NIdR against each cell line are summarized in Table 2. […] The increased potency of 3-Eth-5-NIdR likely reflects the higher catalytic efficiency for the corresponding nucleoside triphosphate to act as a chain-terminating substrate for TdT. […] In general, there is an excellent correlation (R^2=0.695, p<0.0001) between the anti-cancer effects of the non-natural nucleoside with TdT level. Similar analyses were performed by plotting the LD50 values of 3-Eth-5-NIdR as a function of TdT content (FIG. 3E).
# Jurkat cells = experiment: Cell proliferation assay (trypan blue), Jurkat; type: cell-based; settings: up to 72 h
# Protocol: as §1, §2
# RS4(11) cells = experiment: Cell proliferation assay (trypan blue), RS4(11); type: cell-based; settings: up to 72 h
# Protocol: as §1, §2
# J45.01 cells = experiment: Cell proliferation assay (trypan blue), J45.01; type: cell-based; settings: J45.01, up to 72 h
# Protocol: as §1, §2
# MOLT4 cells [3] = experiment: Apoptosis measurement (Annexin V-Alexa Fluor 488 / propidium iodide flow cytometry); type: cell-based; settings: for PI uptake (necrotic cell death): MOLT4
# Protocol: Cells were treated with DMSO (vehicle), 5-NIdR (100 μg mL-1), and 3-Eth-5-NIdR (10 and 40 μg mL-1) as described above. Cells were harvested by centrifugation and washed in phosphate-buffered saline and resuspended in 100 μL of binding buffer containing AnnexinV-Alexa Fluor 488 conjugate. Cells were treated with propidium iodide (PI) and incubated at RT for 15 min followed by flow cytometry analysis. This enables live cells (unstained with either Alexa Fluor 488 or PI) to be discriminated from early apoptotic (stained with Alexa Fluor 488), late apoptotic cells (stained with Alexa Fluor 488 and PI), and necrotic cells (stained with PI).
# The mechanism by which these non-natural nucleosides induce cell death was interrogated using dual parameter FACS analyses measuring propidium iodide uptake and Alexa Fluor488 annexin V conjugate staining. This allows live cells (unstained with either fluorophore) to be distinguished from cells that are early apoptotic (annexin V staining only), late apoptotic (propidium iodide and annexin V staining), and necrotic (propidium iodide staining only). […] In this case, treatment with 100 μg mL^−1 5-NIdR causes a 5-fold increase in early and late stage apoptosis, respectively. […] The induction of apoptosis was also independently confirmed by using agarose gel electrophoresis to observe DNA cleavage sites between nucleosomes that occur in chromatin at ˜200-base pair intervals.
# MOLT4 cells [4] = experiment: In situ click reaction with AlexaFluor488-azide, flow cytometry, MOLT4; type: cell-based
# Protocol: (§3) In situ “click” reactions were performed using cells harvested after 2 days of treatment with DMSO, 3-Eth-5-NIdR (10, 40, or 100 μg mL^−1), 5-NIdR (100 μg mL^−1) or 5-ethynyl-2′-deoxyuridine (EdU) (10 μM). All cells were fixed with cold methanol. Under minimal lighting, cells were treated with 0.3 mL of saponin-based permeabilization and wash buffer for 45 min at 37° C. Click reactions were initiated by adding the click-iT reaction cocktail according to the instructions of the manufacturer (Invitrogen) followed by incubation at 37° C. for 90 min. Cells were then washed two times with saponin-based permeabilization and wash buffer. Cell pellets were dislodged using 0.5 mL solution of 10 μg mL^−1 PI and RNAase A in saponin-based permeabilization and wash buffer and then incubated for at least 15 min prior to flow cytometry analysis.
# MOLT4 cells were treated with DMSO, EdU (a “clickable” thymidine analogue), 5-NIdR, and 3-Eth-5-NIdR for 2 days and then washed with PBS to remove any nucleoside and/or nucleotide not incorporated into DNA. After fixation and permeabilization, the cells were treated with AlexaFluor488-azide and Cu(I) catalyst to commence “clicking” of any incorporated nonnatural nucleotide. Dual parameter flow cytometry applying PI staining coupled with detection of the AlexaFluor488 fluorophore was used to detect the “clicked” non-natural nucleotide in cellular DNA. […] This high amount of “clicked” DNA reflects transport of EdU into the cell, conversion to the corresponding nucleoside triphosphate, and incorporation into the DNA of replicating cells. MOLT4 cells treated with 10 μg mL^−1 3-Eth-5-NIdR also show appreciable levels of AlexaFluor488 stained DNA (2.8%) after 2 days of treatment. Furthermore, the amount of “clicked” DNA is dosedependent as treatment with 40 μg mL^−1 Eth-5-NIdR yields a […] increase in AlexaFluor488 staining (6.5%). Identical experiments were performed using the Loucy cell line that lacks TdT and thus is less sensitive to the cytotoxic effects of the non-natural nucleoside (vide inf ra). […] Treatment with 40 μg mL^−1 of 3-Eth-5-NIdR produces low levels of “clicked” DNA (0.02%). […] Once incorporated into DNA, the non-natural nucleotide inhibits cellular DNA replication and induces apoptosis. Finally, it should be emphasized that low levels (<0.5%) of AlexaFluor488 staining are detected in cells treated with 100 μg mL^−1 5-NIdR.
# [5] = target: terminal deoxynucleotidyl transferase (TdT) (Bos taurus, UniProt P06526); experiment: Incorporation of natural and non-natural nucleotides by TdT (polymerization assay, Michaelis-Menten kinetics); type: biochemical; settings: incorporation by TdT; 6 units TdT, 1.5 μM single-stranded DNA substrate
# Protocol: All enzymatic assays were performed as previously described. […] Reactions were quenched with 200 Mm EDTA at variable times (5-600 s) and analyzed using denaturing gel electrophoresis. Time courses in product formation were fitted using eq 1: Y=mt+b(1) (1)
# where y is the amount of product, m is the rate of the reaction, t is time, and b is the Y-intercept. Km and Vmax values were determined by fits of the data points to the Michaelis-Menten equation: […]
# where Vmax is the maximal rate of nucleotide incorporation, Km is the Michaelis constant for dNTP, and [dNTP] is the concentration of nucleotide substrate. The IC50 value for 3-Eth-5-NITP was obtained using a nonlinear regression curve fit of the data to eq 3:
# The biological function of TdT is to expand immunological diversity by randomly incorporating dNTPs into single-stranded DNA during V(D)J recombination. […] TdT also utilizes nucleotide analogues including 2′,3′-dideoxynucleotides, dinucleoside 5′,5′-tetraphosphates, and intrinsically fluorescent nucleotide analogues. In this report, we tested if TdT also incorporates indolyl-2′-deoxyribose-5′-triphosphates that bear non-natural moieties such as ethynyl and nitro groups at the 3- and 5-position, respectively, of the indole base. […] Aliquots of the reaction were quenched with EDTA at variable time points, and the polymerization reactions were then subjected to denaturing polyacrylamide gel electrophoresis to separate extended primers from unreacted substrate.
# Time courses in product formation were generated using pseudo-first order reaction conditions in which 6 units of TdT were incubated with 1.5 μM DNA substrate and mixed with variable concentrations of non-natural nucleotide (0.05-50 μM). Each time course was fit to an equation for a straight line to define the rate of nucleotide incorporation (data not shown).
# Loucy cells [6] = experiment: In situ click reaction with AlexaFluor488-azide, flow cytometry, Loucy; type: cell-based; settings: 40 μg mL^−1, 2 days
# Protocol: as §3
# MOLT4 cells were treated with DMSO, EdU (a “clickable” thymidine analogue), 5-NIdR, and 3-Eth-5-NIdR for 2 days and then washed with PBS to remove any nucleoside and/or nucleotide not incorporated into DNA. After fixation and permeabilization, the cells were treated with AlexaFluor488-azide and Cu(I) catalyst to commence “clicking” of any incorporated nonnatural nucleotide. […] Finally, it should be emphasized that low levels (<0.5%) of AlexaFluor488 staining are detected in cells treated with 100 μg mL^−1 5-NIdR.
# [7] = MOLT4, 100 μg mL^−1, 2 days post-treatment
# [8] = MOLT4, 100 μg mL^−1, compared to DMSO
# [9] = MOLT4, 40 μg mL^−1, compared to DMSO
# terminal deoxynucleotidyl transferase (TdT), sequence (P06526 whole entry): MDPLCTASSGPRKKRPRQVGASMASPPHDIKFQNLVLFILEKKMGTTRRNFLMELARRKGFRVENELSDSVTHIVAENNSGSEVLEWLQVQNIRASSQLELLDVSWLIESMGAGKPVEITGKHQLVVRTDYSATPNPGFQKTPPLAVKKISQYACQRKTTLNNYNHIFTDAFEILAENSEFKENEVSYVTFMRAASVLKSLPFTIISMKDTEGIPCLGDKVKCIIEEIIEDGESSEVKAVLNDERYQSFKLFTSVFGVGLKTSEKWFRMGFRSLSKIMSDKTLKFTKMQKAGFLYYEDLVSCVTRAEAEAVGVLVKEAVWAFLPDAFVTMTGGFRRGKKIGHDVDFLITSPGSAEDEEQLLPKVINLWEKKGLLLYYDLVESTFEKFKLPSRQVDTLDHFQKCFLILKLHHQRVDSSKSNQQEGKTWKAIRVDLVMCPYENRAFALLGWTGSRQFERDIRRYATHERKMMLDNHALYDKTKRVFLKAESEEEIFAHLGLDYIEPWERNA
structure (smiles),measurement,setting,value
"O=[N+]([O-])c1ccc2c(ccn2[C@H]2C[C@H](O)[C@@H](CO)O2)c1 [5-NIdR, 5-nitroindolyl-2′-deoxynucleoside, reference compound]",increase in the number of non-viable cells,MOLT4 cells [1]; [7],2.5 fold
same,reduction in the number of viable cells,MOLT4 cells [1]; [7],~5 fold
same,IC50,MOLT4 cells [1],34 ± 6 µg/mL
same,LD50,MOLT4 cells [1],~100 µg/mL
same,IC50,Loucy cells [2],>>100 μg mL^−1
same,LD50,Loucy cells [2],>>100 μg mL^−1
same,increase in the number of non-viable cells,"Loucy cells [2]; Loucy, 100 μg mL^−1",does not cause a substantial increase
same,reduction in the number of viable cells,"Loucy cells [2]; Loucy, 100 μg mL^−1",< 25%
same,IC50,CEM-C7 cells,~100 µg/mL
same,LD50,CEM-C7 cells,>>100 μg mL^−1
same,IC50,Jurkat cells,~100 µg/mL
same,LD50,Jurkat cells,>>100 μg mL^−1
same,IC50,RS4(11) cells,>100 µg/mL
same,LD50,RS4(11) cells,>>100 μg mL^−1
same,IC50,J45.01 cells,~100 µg/mL
same,LD50,J45.01 cells,>>100 μg mL^−1
same,PI uptake (necrotic cell death),MOLT4 cells [3],no significant PI uptake
same,Early apoptoic cells (%),"MOLT4 cells [3]; MOLT4, 100 μg mL^−1",26.5 ± 3.7%
same,Late apoptoic cells (%),"MOLT4 cells [3]; MOLT4, 100 μg mL^−1",18.9 ± 3.4%
same,Necrotic cells (%),"MOLT4 cells [3]; MOLT4, 100 μg mL^−1",1.5 ± 0.5%
same,Viable cells (%),"MOLT4 cells [3]; MOLT4, 100 μg mL^−1",53.1 ± 6.7%
same,increase in early stage apoptosis,MOLT4 cells [3]; [8],5 fold
same,increase in late stage apoptosis,MOLT4 cells [3]; [8],5 fold
same,AlexaFluor488 staining,"MOLT4 cells [4]; 100 μg mL^−1, 2 days, cell line not given",< 0.5%
Nc1nc2c(ncn2[C@H]2C[C@H](O)[C@@H](COP(=O)(O)OP(=O)(O)OP(=O)(O)O)O2)c(=O)[nH]1 [dGTP],Km,[5],8 ± 0.9 µM
same,Vmax,[5],29.2 ± 1.1 nM/s
"C#Cc1cn([C@H]2C[C@H](O)[C@@H](CO)O2)c2ccc([N+](=O)[O-])cc12 [3-Eth-5-NIdR, 3-ethynyl-5-nitroindolyl-2′-deoxynucleoside]",cytostatic and cytotoxic effects,"MOLT4 cells [1]; MOLT4, 10 μg mL^−1",cytostatic and cytotoxic effects are observed
same,IC50,MOLT4 cells [1],14.1 ± 2.4 µg/mL
same,LD50,MOLT4 cells [1],27.7 ± 1.7 µg/mL
same,IC50,MOLT4 cells [1]; listed as 3-Eth-5-NIdr,14 ± 2 µg/mL
same,LD50,MOLT4 cells [1]; listed as 3-Eth-5-NIdr,28 ± 4 µg/mL
same,IC50,Loucy cells [2],62 ± 5 µg/mL
same,LD50,Loucy cells [2],63 ± 3 µg/mL
same,cytostatic or cytotoxic effects,"Loucy cells [2]; Loucy, 40 μg mL^−1",significant cytostatic or cytotoxic effects are not observed
same,IC50,CEM-C7 cells,23 ± 2 µg/mL
same,LD50,CEM-C7 cells,~100 µg/mL
same,IC50,Jurkat cells,49 ± 1 µg/mL
same,LD50,Jurkat cells,~100 µg/mL
same,IC50,RS4(11) cells,23 ± 2 µg/mL
same,LD50,RS4(11) cells,57 ± 2 µg/mL
same,IC50,J45.01 cells,34 ± 6 µg/mL
same,LD50,J45.01 cells,71 ± 6 µg/mL
same,PI uptake (necrotic cell death),MOLT4 cells [3],no significant PI uptake
same,Early apoptoic cells (%),"MOLT4 cells [3]; MOLT4, 10 μg mL^−1",10.5 ± 1.5%
same,Late apoptoic cells (%),"MOLT4 cells [3]; MOLT4, 10 μg mL^−1",5.4 ± 1.0%
same,Necrotic cells (%),"MOLT4 cells [3]; MOLT4, 10 μg mL^−1",0.7 ± 0.2%
same,Viable cells (%),"MOLT4 cells [3]; MOLT4, 10 μg mL^−1",83.4 ± 2.7%
same,level of apoptosis compared with 100 μg mL^−1 5-NIdR,"MOLT4 cells [3]; MOLT4, 10 μg mL^−1",equivalent levels of apoptosis
same,Early apoptoic cells (%),"MOLT4 cells [3]; MOLT4, 40 μg mL^−1",68.8 ± 0.9%
same,Late apoptoic cells (%),"MOLT4 cells [3]; MOLT4, 40 μg mL^−1",23.7 ± 4.9%
same,Necrotic cells (%),"MOLT4 cells [3]; MOLT4, 40 μg mL^−1",1.2 ± 0.2%
same,Viable cells (%),"MOLT4 cells [3]; MOLT4, 40 μg mL^−1",6.3 ± 3.7%
same,increase in early stage apoptosis,MOLT4 cells [3]; [9],13 fold
same,increase in late stage apoptosis,MOLT4 cells [3]; [9],7 fold
same,AlexaFluor488 stained (clicked) DNA,"MOLT4 cells [4]; MOLT4, 10 μg mL^−1, 2 days",2.8%
same,AlexaFluor488 staining (clicked DNA),"MOLT4 cells [4]; MOLT4, 40 μg mL^−1, 2 days",6.5%
same,increase in AlexaFluor488 staining,"MOLT4 cells [4]; MOLT4, 40 vs 10 μg mL^−1",2.5 fold
same,clicked DNA (AlexaFluor488 staining),Loucy cells [6],0.02%
